Experiments:
[1] = tested on: replication‐competent HIV‐1 provirus in CD4^+ T cells from HIV‐1‐infected patients; experiment: Quantitative viral outgrowth assay (qVOA); assay type: cell-based
Procedure: (§1) However, 1 nM PEP005 in combination with 1 μM PH02 produced a significant response that was double that produced by 1 μM PH02 on its own (Fig 10A). We confirmed this effect using a quantitative viral outgrowth assay (qVOA) with pools of CD4^+ T cells isolated from HIV‐1‐infected patient samples (Fig EV5, Appendix Table S5). […] We conclude that this combination of treatments may represent a promising candidate therapy to target persistent latent viral infection.
Figure EV5 Assay for reactivation of HIV‐1 from latently infected cells using a quantitative viral outgrowth assay Resting CD4^+ T cells from patient samples were serially diluted in 6‐ or 24‐well plates in duplicate (top) and treated as indicated (left). After 24 h, MOLT4/CCR5 cells were added to the wells, and the cultures incubated a further 14 days. HIV‐1 RNA was detected in filtered culture supernatants using RT–qPCR, and wells producing the specific PCR product are indicated in green. […]
For quantitative viral outgrowth assays (qVOA), serial dilutions of CD4^+ T lymphocytes from pooled HIV‐infected patients were plated in 6‐ or 24‐well plates (1 × 10^6 cells or < 1 × 10^6 cells, respectively). […] Viral RNA was isolated from the culture supernatants and analyzed as described above. […]

[2] = tested on: latent HIV‐1 provirus in CD4^+ T cells from aviremic HIV‐infected patients; experiment: Intracellular HIV‐1 mRNA in CD4+ T cells of aviremic patients; assay type: cell-based
Procedure: as §1
Figure 10 Effect of PH02 and PEP005 on expression of HIV provirus in latently infected cells from patients • Expression of intracellular HIV‐1 mRNA was determined from pools of CD4^+ T cells from aviremic HIV‐infected patients (n = 3, Appendix Table S4) following 24‐h treatment as indicated. Results are shown as fold induction relative to untreated controls. • Quantitative viral outgrowth assays (qVOA) were used to measure reactivation of HIV‐1 provirus from latency in pools of cells from patients. […] Data information: Statistical significance was determined by one‐way ANOVA and indicated as: *P < 0.05; **P < 0.005; ***P < 0.0005; ****P < 0.00005. […]
HIV‐1 RNA was measured from 1 × 10^6 resting CD4^+ T lymphocytes treated with 30 μM of each compound. […] RNA copy number was calculated using a standard curve generated from titrated infections with RGH‐PGK virus (Dahabieh et al, 2013). […]

Compound	virus replication ([1]; 1 μM PH02 + 1 nM PEP005, 24 h)	response of combination relative to 1 μM PH02 on its own ([2]; 1 μM PH02 + 1 nM PEP005, 24 h)	reactivation of virus ([1]; 1 nM PEP005 alone, 24 h)	induction of viral RNA ([2]; 1 nM PEP005 alone, 24 h)
CC(=O)Oc1ccccc1N(C=C1Sc2ccccc2C1=O)C(C)=O [PH02, 2‐{acetyl[(3‐oxo‐1‐benzothien‐2(3H)‐ylidene)methyl]amino}phenyl acetate]	produced significant virus replication	double	–	–
C/C=C(/C)C(=O)O[C@H]1C(C)=C[C@]23C(=O)[C@@H](C=C(CO)[C@@H](O)[C@]12O)[C@H]1[C@@H](C[C@H]3C)C1(C)C [PEP005, ingenol‐3‐angelate, reference compound]	–	–	did not produce reactivation of virus	did not cause induction of viral RNA

Reference: PMC5838563, “Compounds producing an effective combinatorial regimen for disruption of HIV‐1 latency” (EMBO Molecular Medicine, 2017)
